Experimental data taken from US10383865B2, “Pharmaceutical combination composition comprising complex formulations of Ivacaftor and Lumacaftor and their salts and derivatives, process for their preparation thereof and pharmaceutical compositions containing them” (Druggability Technologies IP Holdco Limited, priority 2016, dated 2019).
Where “and” joins values, the source holds several entries; their conditions need not be identical. Identical values can stand only once. Like-named read-outs stand apart in the source and are kept apart here.

Experiments:
[1] = cited from earlier work; for share of the total dose eliminated as this metabolite: oral administration of Ivacaftor
[2] = test system: CYP3A; conditions: in-vitro and clinical studies; cited from earlier work
[3] = cited from earlier work
[4] = cited from earlier work; for median (range) tmax: multiple oral dose of Ivacaftor in combination with Lumacaftor, fed state; for exposure with fat-containing foods relative to fasting state: single dose of Lumacaftor/Ivacaftor
[5] = cited from earlier work; remark: listed apart in the source
[6] = test system: colorectal adenocarcinoma (Caco-2) cell system; conditions: cited from earlier work
[7] = test system: plasma proteins, primarily albumin; conditions: cited from earlier work
[8] = biological target: CFTR protein (Homo sapiens, UniProt P13569); conditions: major human metabolites of Ivacaftor; cited from earlier work
Chain of CFTR protein (P13569 whole entry): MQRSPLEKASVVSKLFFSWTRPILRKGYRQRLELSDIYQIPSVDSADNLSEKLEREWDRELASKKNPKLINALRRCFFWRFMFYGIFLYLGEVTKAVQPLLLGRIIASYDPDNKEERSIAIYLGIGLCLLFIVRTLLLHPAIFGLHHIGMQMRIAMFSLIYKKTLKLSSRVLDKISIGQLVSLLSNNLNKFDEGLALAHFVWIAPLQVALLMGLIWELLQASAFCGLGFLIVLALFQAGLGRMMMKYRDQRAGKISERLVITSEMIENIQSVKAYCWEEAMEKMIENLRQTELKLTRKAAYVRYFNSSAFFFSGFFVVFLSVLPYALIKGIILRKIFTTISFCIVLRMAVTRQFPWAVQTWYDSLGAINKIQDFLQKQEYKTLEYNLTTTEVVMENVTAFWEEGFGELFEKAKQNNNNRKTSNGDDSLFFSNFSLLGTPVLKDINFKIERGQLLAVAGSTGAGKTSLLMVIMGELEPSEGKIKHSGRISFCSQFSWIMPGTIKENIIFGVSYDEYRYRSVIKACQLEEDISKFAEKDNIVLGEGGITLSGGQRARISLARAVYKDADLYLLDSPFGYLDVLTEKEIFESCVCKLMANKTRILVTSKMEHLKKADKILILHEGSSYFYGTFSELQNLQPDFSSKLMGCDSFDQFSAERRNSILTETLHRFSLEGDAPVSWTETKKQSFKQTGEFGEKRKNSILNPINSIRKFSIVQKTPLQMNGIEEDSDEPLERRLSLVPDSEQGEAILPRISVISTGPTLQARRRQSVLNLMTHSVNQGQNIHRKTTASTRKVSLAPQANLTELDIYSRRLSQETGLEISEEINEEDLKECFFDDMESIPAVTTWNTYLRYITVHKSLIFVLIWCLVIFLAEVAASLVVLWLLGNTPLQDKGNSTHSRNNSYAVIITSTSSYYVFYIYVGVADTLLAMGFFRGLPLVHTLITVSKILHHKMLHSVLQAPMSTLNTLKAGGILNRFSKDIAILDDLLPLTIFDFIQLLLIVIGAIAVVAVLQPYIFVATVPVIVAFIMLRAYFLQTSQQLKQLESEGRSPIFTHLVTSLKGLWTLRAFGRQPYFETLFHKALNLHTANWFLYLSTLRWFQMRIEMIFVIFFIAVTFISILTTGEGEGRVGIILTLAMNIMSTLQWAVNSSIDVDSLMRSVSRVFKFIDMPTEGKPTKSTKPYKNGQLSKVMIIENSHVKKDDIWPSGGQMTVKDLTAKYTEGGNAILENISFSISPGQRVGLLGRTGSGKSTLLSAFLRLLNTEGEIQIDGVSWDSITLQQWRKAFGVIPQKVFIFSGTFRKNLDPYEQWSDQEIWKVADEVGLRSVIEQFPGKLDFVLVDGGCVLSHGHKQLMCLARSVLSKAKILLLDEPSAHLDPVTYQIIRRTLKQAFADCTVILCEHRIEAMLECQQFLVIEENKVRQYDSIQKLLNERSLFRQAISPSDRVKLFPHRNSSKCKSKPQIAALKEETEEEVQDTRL

[9] = Gastro-intestinal tract simulated dissolution test (fasted/FaSSIF and fed/FeSSIF); format: physicochemical; conditions: for increase of Ivacaftor dissolution / apparent solubility in FeSSIF condition: FeSSIF vs FaSSIF
Description: Gastro-intestinal tract simulated drug dissolution tests were performed by dispersing the blended pharmaceutical combination composition described above in purified water. The dispersion contained 1 mg/mL Lumacaftor and 0.625 mg/mL Ivacaftor (identical mixture to ORKAMBI®). After 30 minutes holding time, simulated gastric fluid (SGF V2) was added to dispersion in order to set-up the pH to 1.6 (fasted state simulation) or FeSSIF buffer to increase the pH to 5.8 (fed state simulation). After 60 minutes holding time, the pH of the fasted state simulated dispersion was set-up to pH=6.5 adding maleic acid solution. FaSSIF solution was also added to the dispersion to ensure the fasted condition in the intestine simulation. In case of fed state simulation FeSSIF solution was added to the dispersion.
The dissolved amount of Lumacaftor and Ivacaftor from the blended pharmaceutical combination composition was measured by RP-HPLC after filtration with 0.1 μm pore size filter at different time points. Dissolution of Ivacaftor and Lumacaftor from the blended and granulated complex formulation was instantaneous, within 5 minutes more than 85% of the Ivacaftor and Lumacaftor dissolved from the pharmaceutical composition of present invention both in fasted and fed state simulated condition. (FIG. 3).

[10] = Redispersibility / DLS particle size of ball milled formulations; format: physicochemical; conditions: after ball milling and lyophilization
Description: Ivacaftor was ball milled in the presence of the excipients used for the preparation of solid dispersion. Crystalline Lumacaftor was ball milled in the absence of complexation agent (Luviscol VA64) and pharmaceutically acceptable excipient (SDS) and in the presence of them. Ball milling parameters were the following: • Speed: 500 rpm • Milling time: 1 hour • Number of the balls: 25 pcs with 10 mm diameter • Milling vessel's material: […] • Quantity of the milled samples: 100 mg API equivalent mass in 12 mL Milli-Q water
After the milling, the vessel was washed out with 5 mL Milli-Q water. The products were frozen on salted ice and then it was lyophilized using a freeze-drier equipped with −110° C. ice condenser, with a vacuum pump. The material and in-vitro properties of the resulted formulations were compared to the complex Lumacaftor and Ivacaftor formulations.
Particle size of the formulations was measured by DLS technique in reconstituted dispersion/solution.

[11] = Comparative apparent solubility test (100 nm filtration, UV-VIS or RP-HPLC); format: physicochemical; conditions: ultrapurified water, thermodynamic from solid, FIG. 17, read-out: comparative apparent solubility of Ivacaftor formulations
Description: The apparent solubility was measured by UV-VIS spectroscopy or RP-HPLC at room temperature. The samples were dispersed in ultrapurified water in 1-20 mg/mL active ingredient equivalent concentration range. The resulting solutions were filtered by 100 nm disposable syringe filter. The active ingredient content in the filtrate was measured by UV-Vis spectrophotometry or RP-HPLC and the apparent solubility was calculated. The filtrate may contain particles which could not be filtrated out using 100 nm pore size filter.

[12] = single 150 mg oral dose, healthy volunteers, fed state

**Q.** For `CC(C)(C)c1cc(C(C)(C)C)c(NC(=O)c2c[nH]c3ccccc3c2=O)cc1O` [Ivacaftor, N-(2,4-di-tert-butyl-5-hydroxyphenyl)-1,4-dihydro-4oxoquinoline-3-carboxamide], which “apparent volume of distribution, mean (±SD)” value ([1]; 150 mg every 12 hours for 7 days, healthy volunteers, fed state) is on record?
**A.** Its value is 353 (122) L.

**Q.** What about the accumulation ratio ([1]; every 12-hour dosing) of the same compound?
**A.** The accumulation ratio was 2.2 to 2.9.

**Q.** What about the “time to steady-state plasma concentrations” value ([1]; every 12-hour dosing) of the same compound?
**A.** Its value is 3 to 5 days.

**Q.** What about the “median (range) tmax” value ([1]; fed state) of the same compound?
**A.** Its value is “approximately 4.0 (3.0; 6.0) hours”.

**Q.** What about the “increase of exposure when given with food containing fat (food effect)” value ([1]; humans, fed vs fasted) of the same compound?
**A.** The value was 2-to 4 fold and 2-4 fold.

**Q.** What about the “fraction of dose eliminated in the feces after metabolic conversion” value ([1]; oral administration) of the same compound?
**A.** Its value is 87.8%.

**Q.** What about the “urinary excretion as unchanged parent” value ([1]; oral administration) of the same compound?
**A.** Its value is “negligible”.

**Q.** What about the “AUC, mean (±SD)” value [1, 12] of the same compound?
**A.** Its value is 10,600 (5260) ng*hr/mL.

**Q.** And the “Cmax, mean (±SD)” value [1, 12]?
**A.** Its value is 768 (233) ng/mL.

**Q.** And the “time of peak plasma concentrations (tmax)” value [1, 12]?
**A.** Its value is “approximately 4 hours”.

**Q.** And the apparent terminal half-life ([1]; single dose)?
**A.** Its apparent terminal half-life is “approximately 12 hours”.

**Q.** What about the main metabolic route [2] of the same compound?
**A.** Its main metabolic route is “primarily metabolized by CYP3A”.

**Q.** And the solubility in water ([3]; water)?
**A.** The solubility in water was under 0.05 microgram/mL.

**Q.** What about the “median (range) tmax” value [4] of the same compound?
**A.** The value was “approximately 4.0 hours”.

**Q.** What about the “exposure with fat-containing foods relative to fasting state” value [4] of the same compound?
**A.** The value was “approximately 3 times”.

**Q.** For `Cc1ccc(NC(=O)C2(c3ccc4c(c3)OC(F)(F)O4)CC2)nc1-c1cccc(C(=O)O)c1` [Lumacaftor], which “apparent volume of distribution, mean (±SD)” value ([5]; 200 mg every 24 hours for 28 days, CF patients, fed state) is on record?
**A.** The value was 86.0 (69.8) L.

**Q.** What about the “total radioactivity recovered in the urine” value ([5]; Lumacaftor and its metabolites) of the same compound?
**A.** Its value is 8.6%.

**Q.** And the “median (range) time of the maximum concentration (tmax)” value ([5]; fed state)?
**A.** The value was “approximately 4.0 (2.0, 9.0) hours”.

**Q.** What about the “increase of exposure when given with fat containing food” value ([5]; fed vs fasted) of the same compound?
**A.** The value was 1.6-to 2.0 fold.

**Q.** What about the “excreted unchanged in the feces” value ([5]; humans) of the same compound?
**A.** The value was 51%.

**Q.** What about the main metabolic route ([5]; in-vitro and in vivo data) of the same compound?
**A.** The main metabolic route was “mainly metabolized via oxidation and glucuronidation”.

**Q.** What about the “recovered in urine as unchanged parent” value ([5]; of total radioactivity) of the same compound?
**A.** The value was 0.18%.

**Q.** What about the half-life ([5]; patients with CF) of the same compound?
**A.** The half-life was “approximately 26 hours”.

**Q.** And the “permeability in Caco-2 cell system” value [6]?
**A.** The value was “high permeability”.

**Q.** And the solubility ([3]; water and buffer solutions of pH 1.0 to pH 8.0)?
**A.** Its solubility is “practically insoluble”.

**Q.** And the “bound to plasma proteins” value [7]?
**A.** The value was “approximately 99%”.

**Q.** What about the “median (range) tmax” value [4] of the same compound?
**A.** The value was “approximately 4.0 hours”.

**Q.** What about the “exposure with fat-containing foods relative to fasting state” value [4] of the same compound?
**A.** Its value is “approximately 2 times”.

**Q.** What does the source list for `CC(C)(C)c1cc(C(C)(C)CO)c(O)cc1NC(=O)c1c[nH]c2ccccc2c1=O` [M1]?
**A.** share of the total dose eliminated as this metabolite [1]: 22%; potency relative to Ivacaftor [8]: approximately one-sixth

**Q.** What does the source list for `CC(C)(C)c1cc(C(C)(C)C(=O)O)c(O)cc1NC(=O)c1c[nH]c2ccccc2c1=O` [M6]?
**A.** share of the total dose eliminated as this metabolite [1]: 43%; potency relative to Ivacaftor [8]: less than one-fiftieth

**Q.** Which “increase of Ivacaftor dissolution / apparent solubility in FeSSIF condition” value [9] does the source give for `CC(C)(C)c1cc(C(C)(C)C)c(NC(=O)c2c[nH]c3ccccc3c2=O)cc1O` [ball milled crystalline Ivacaftor] here?
**A.** The value was 3 fold.

**Q.** Which “redispersibility in purified water” value [10] does the source give for `Cc1ccc(NC(=O)C2(c3ccc4c(c3)OC(F)(F)O4)CC2)nc1-c1cccc(C(=O)O)c1` [ball milled crystalline Lumacaftor] here?
**A.** The value was “hardly redispersible”.

**Q.** For `CC(C)(C)c1cc(C(C)(C)C)c(NC(=O)c2c[nH]c3ccccc3c2=O)cc1O` [crystalline Ivacaftor], which “increase of Ivacaftor dissolution / apparent solubility in FeSSIF condition” value [9] is on record?
**A.** Its value is 5 fold.

**Q.** What about the solubility [11] of the same compound?
**A.** Its solubility is under 100 µg/mL.

**Q.** For `Cc1ccc(NC(=O)C2(c3ccc4c(c3)OC(F)(F)O4)CC2)nc1-c1cccc(C(=O)O)c1` [crystalline Lumacaftor], which “apparent solubility of Lumacaftor” value ([9]; both in FaSSIF and FeSSIF media) is on record?
**A.** The value was “below 10%”.
